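Step 1: Grow cells in 96-well plates. Step 2: Expose to compound for 48 hours at 5 concentrations. Step 3: Interpolate endpoints linearly; if unreached, use highest concentration. Here, GI50 denotes the concentration required for 50% inhibition of growth.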 Activity calls are given as the source filed them. Rule as the data show it: active = GI50 up to about 1.1 µM and inactive = higher.
How the values were obtained:
Assay in all cases: NCI-60 cell line screen, 48 h
[1] = test system: OVCAR-5
[2] = test system: CCRF-CEM
[3] = test system: RXF 393
[4] = test system: EKVX
[5] = test system: M14
[6] = test system: HT-29
[7] = test system: KM12
[8] = test system: UACC-62
[9] = test system: SNB-19
[10] = test system: NCI-H23
[11] = test system: OVCAR-3
[12] = test system: NCI-H460
[13] = test system: NCI-H522
[14] = test system: HCT-116
[15] = test system: Malme-3M
[16] = test system: SK-MEL-28
[17] = test system: U-251
[18] = test system: UACC-257
[19] = test system: ACHN
[20] = test system: HOP-92

Structure (SMILES)	GI50 [1]	GI50 [2]	GI50 [3]	GI50 [4]	GI50 [5]	GI50 [6]	GI50 [7]	GI50 [8]	GI50 [9]	GI50 [10]	GI50 [11]	GI50 [12]	GI50 [13]	GI50 [14]	GI50 [15]	GI50 [16]	GI50 [17]	GI50 [18]	GI50 [19]	GI50 [20]
Cc1cc(C)c(-n2[nH]c(=O)n(C)c2=O)c(C)c1	> 100 µM (inactive)	> 100 µM (inactive)	> 100 µM (inactive)	> 100 µM (inactive)	> 100 µM (inactive)	> 100 µM (inactive)	> 100 µM (inactive)	> 100 µM (inactive)	> 100 µM (inactive)	> 100 µM (inactive)	> 100 µM (inactive)	> 100 µM (inactive)	> 100 µM (inactive)	> 100 µM (inactive)	> 100 µM (inactive)	> 100 µM (inactive)	> 100 µM (inactive)	> 100 µM (inactive)		
Cc1cccc(C(C)(C)C)c1NC(=O)CCl		> 100 µM (inactive)	> 100 µM (inactive)	> 100 µM (inactive)	> 100 µM (inactive)	> 100 µM (inactive)	> 100 µM (inactive)	> 100 µM (inactive)	> 100 µM (inactive)	> 100 µM (inactive)	> 100 µM (inactive)	> 100 µM (inactive)	> 100 µM (inactive)	> 100 µM (inactive)	> 100 µM (inactive)	> 100 µM (inactive)	> 100 µM (inactive)	> 100 µM (inactive)	> 100 µM (inactive)	
O=C1c2ccccc2-c2c1c(-c1ccc(O)cc1O)nc1ccc3ccccc3c21	> 100 µM (inactive)	> 100 µM (inactive)		> 100 µM (inactive)	> 100 µM (inactive)	> 100 µM (inactive)	> 100 µM (inactive)	> 100 µM (inactive)	> 100 µM (inactive)	> 100 µM (inactive)		> 100 µM (inactive)		> 100 µM (inactive)	> 100 µM (inactive)	> 100 µM (inactive)	75.2 µM (inactive)	> 100 µM (inactive)	> 100 µM (inactive)	
CCOC(=O)c1cc(C(=O)O)c(=O)n2c1[nH]c1ccccc12		> 100 µM (inactive)	24.3 µM (inactive)	> 100 µM (inactive)	> 100 µM (inactive)	> 100 µM (inactive)	> 100 µM (inactive)	44.5 µM (inactive)	44.3 µM (inactive)	26.9 µM (inactive)	> 100 µM (inactive)	89.9 µM (inactive)	26.7 µM (inactive)	40.7 µM (inactive)	> 100 µM (inactive)	26.2 µM (inactive)	83.4 µM (inactive)	> 100 µM (inactive)	> 100 µM (inactive)	
C[N+](C)([O-])C12CC3CC(CC(C3)C1)C2	39.6 µM (inactive)	34.1 µM (inactive)	37.5 µM (inactive)	21.4 µM (inactive)	25.7 µM (inactive)	35.6 µM (inactive)	26.8 µM (inactive)	20.1 µM (inactive)	46.3 µM (inactive)	28.2 µM (inactive)	16.4 µM (inactive)	43.7 µM (inactive)	27.2 µM (inactive)	23.9 µM (inactive)	54.3 µM (inactive)	32.4 µM (inactive)	37.4 µM (inactive)	39.2 µM (inactive)	26.4 µM (inactive)	
Cc1cc2[nH]c3c(C#N)c(-c4ccccc4)c(/N=N/c4cccc(C(F)(F)F)c4)c(=O)n3c2cc1C	> 100 µM (inactive)	5.3 µM (inactive)	54.5 µM (inactive)	23.4 µM (inactive)	34.4 µM (inactive)		31.6 µM (inactive)		35.2 µM (inactive)	14.6 µM (inactive)	8.55 µM (inactive)	21.4 µM (inactive)	16 µM (inactive)	13.7 µM (inactive)	42.9 µM (inactive)	39 µM (inactive)	39.3 µM (inactive)	26.8 µM (inactive)	37.5 µM (inactive)	
COC(=O)C1=C(C)N(NC(=O)c2ccccc2)C(C)(O)C12CCOC2=O (configuration not stated)	> 100 µM (inactive)	> 100 µM (inactive)		> 100 µM (inactive)	> 100 µM (inactive)	> 100 µM (inactive)	> 100 µM (inactive)	> 100 µM (inactive)	> 100 µM (inactive)	> 100 µM (inactive)	> 100 µM (inactive)	> 100 µM (inactive)	> 100 µM (inactive)	> 100 µM (inactive)	0.0475 µM (active)	> 100 µM (inactive)	> 100 µM (inactive)	> 100 µM (inactive)	> 100 µM (inactive)	
CC(C)(C)N(Cc1ccoc1)C(=O)/C=C\[S+]([O-])c1ccccc1 (configuration not stated)	25.2 µM (inactive)	3.05 µM (inactive)		22.8 µM (inactive)	17.2 µM (inactive)	22.9 µM (inactive)	16.6 µM (inactive)	20 µM (inactive)	28.3 µM (inactive)	12.9 µM (inactive)	13.3 µM (inactive)		17.5 µM (inactive)	16.6 µM (inactive)		21.8 µM (inactive)	15.5 µM (inactive)	19.9 µM (inactive)	25.9 µM (inactive)	15 µM (inactive)
CS(=O)(=O)OC1CCC2(C#N)CCC1C2=O (configuration not stated)	> 100 µM (inactive)	> 100 µM (inactive)	> 100 µM (inactive)	> 100 µM (inactive)	71.3 µM (inactive)	> 100 µM (inactive)	> 100 µM (inactive)	> 100 µM (inactive)	> 100 µM (inactive)	> 100 µM (inactive)	> 100 µM (inactive)	95.3 µM (inactive)	86.5 µM (inactive)	> 100 µM (inactive)	> 100 µM (inactive)	> 100 µM (inactive)	> 100 µM (inactive)	> 100 µM (inactive)	> 100 µM (inactive)	
CCc1cccc(C)c1NC(=O)C(=O)CC(=O)c1ccc(Cl)s1		> 100 µM (inactive)		> 100 µM (inactive)	> 100 µM (inactive)	> 100 µM (inactive)	> 100 µM (inactive)	> 100 µM (inactive)	> 100 µM (inactive)	> 100 µM (inactive)		> 100 µM (inactive)		> 100 µM (inactive)	> 100 µM (inactive)	> 100 µM (inactive)	> 100 µM (inactive)	> 100 µM (inactive)	> 100 µM (inactive)	> 100 µM (inactive)
CSc1ccccc1P(c1ccccc1SC)c1ccccc1SC	> 100 µM (inactive)	> 100 µM (inactive)		> 100 µM (inactive)	> 100 µM (inactive)		> 100 µM (inactive)	> 100 µM (inactive)	> 100 µM (inactive)	> 100 µM (inactive)				> 100 µM (inactive)	> 100 µM (inactive)	> 100 µM (inactive)	31.6 µM (inactive)		> 100 µM (inactive)	> 100 µM (inactive)
COc1ccc(N2C(=O)C3c4[nH]c5ccc(C)cc5c4C4CCC(C(C)(C)C)CC4C3C2=O)cc1 (configuration not stated)		4.84 µM (inactive)	16.9 µM (inactive)	31 µM (inactive)	10.7 µM (inactive)	12.7 µM (inactive)	32.8 µM (inactive)	7.93 µM (inactive)	22.6 µM (inactive)	22.3 µM (inactive)	10 µM (inactive)	6.22 µM (inactive)	25.6 µM (inactive)	7.66 µM (inactive)		11.5 µM (inactive)	3.85 µM (inactive)	23.8 µM (inactive)	7.64 µM (inactive)	

Reference: ChEMBL document CHEMBL1201862, “PubChem BioAssay data set” (2004)
